# Earlier results, collected in patent US20220054371A1, “TOOTH CLEANING COMPOSITION, TOOTH CLEANING AGENT, DENTAL CALCULUS REMOVAL ACCELERATOR, AND TOOTH CLEANING METHOD” (TOKUYAMA DENTAL CORPORATION, priority 2018, published 2022).
# Details: 2.0 mg dental calculi in 1 ml of 10% aqueous solution, pH 3.1, 14 minutes
compound,measurement,value
CC(O)C(=O)O (stereo not shown) [lactic acid],weight reduction of dental calculi,1.0 mg
